Columns and labels:
[1] = system: diabetic/hypercholesterolemic pig model (DM/HC); assay: MicroCT analysis of trabecular bone (medial femoral condyle) in the DM/HC pig model; type: in vivo; conditions: for SMI (structural model index) / Tb.Th (trabecular thickness): 10 mg/kg/day
Method: Animal model: A diabetic/diabetic hypercholestrolemic pig model (DM/HC) was developed that mimics human-like atherosclerosis. Domestic Yorkshire boars weighing 25-30 kg and aged ˜4 months were castrated and made diabetic with a single intravenous injection of 125 mg/kg of streptozotocin (Sicor Pharmaceuticals, Irvine, Calif.). […] The animals were sacrificed at 6-month after the randomization. The animal protocol has been approved by the Institutional Animal Care and Use Committee of University of Pennsylvania. Daily dosing began on Day 29, at which time each test animal was given a daily dose of 10 mg/kg SB-480848 (given as bolus equivalent in dog food). Animals were NPO from midnight the night before. Animals were euthanized on Day 196 and tissues harvested immediately. Tissue sampling: The right knee joint was removed and dissected. The femoral bone was split in half in parallel to the long axis of the bone. A piece of bone including both the articular surface and growth plate region (˜15-20 mm) was sliced off from the front and parallel to the femoral shaft (FIG. 1). The tissues were fixed in 4% paraformaldehyde and scanned within one week in a μCT scanner (μCT-40, Scanco Corp.) with a voxel resolution of 20 μm. MicroCT Analysis—Micro CT analysis generates 3 dimensional data including bone density and indices of micro-architecture. From the central region, i.e., between the articular surface (top) and the growth plate (bottom), 250 slices (˜[…]) were analyzed. To avoid artifact, the measurements were contoured away from the regions directly below the articular surface and the cutting edges. Paraformaldehyde fixed tissues (2×2 cm) were analyzed using microCT 40 (Scanco Medical, Bassersdorf, Switzerland) and a 3D reconstruction of the images slices was generated. The tissues were scanned at a medium resolution with slice thickness and slice increments of 20 μm. […] Scanning was performed at an energy setting of 70000 (V) and an intensity of 114 (μA) with an integration time of 200 ms. All values for tissue volume (mm3), bone volume (mm3), bone volume/tissue volume, and mean/density (mg HA/ccm) were also calculated and recorded. […] The image density was measured with the Distance3D tool of the μCT Evaluation Program V5.0.

[2] = Body weight and general observation of DM/HC pigs during the study; type: in vivo, pig
Method: (§1) Animal model: A diabetic/diabetic hypercholestrolemic pig model (DM/HC) was developed that mimics human-like atherosclerosis. Domestic Yorkshire boars weighing 25-30 kg and aged ˜4 months were castrated and made diabetic with a single intravenous injection of 125 mg/kg of streptozotocin (Sicor Pharmaceuticals, Irvine, Calif.). After stabilized for 1-2 weeks, the animals with elevated levels of plasma glucose (>150 mg/dl) were fed with atherogenic (high-fat) diet as shown in Table 1 (Animal Specialties, Quakertown, Pa.) to achieve a cholesterol level of approximately 250-800 mg/dl.
(§2) At one month after stabilization of choleresterol at 250-800 mg/dl, the animals were randomized into two experimental groups, DM/HC (hyperglycemia and hypercholesterolemia) group with no treatment and treatment group (10 mg/kg/day of SB-480848, also referred to as 1-(N-(2-(diethylamino)ethyl)-N-(4-(4-trifluoromethylphenyl)benzyl)-aminocarbonylmethyl)-2-(4-fluorobenzyl)thio-5,6-trimethylenepyrimidin-4-one). The animals were sacrificed at 6-month after the randomization. The animal protocol has been approved by the Institutional Animal Care and Use Committee of University of Pennsylvania.
(§3) Daily dosing began on Day 29, at which time each test animal was given a daily dose of 10 mg/kg SB-480848 (given as bolus equivalent in dog food). Animals were NPO from midnight the night before. […]

[3] = system: diabetic/hypercholesterolemic pig model (DM/HC); assay: Histochemical staining (H&E-AB) of bone marrow in DM/HC pigs; type: in vivo; conditions: treated vs non-treated DM/HC pigs
Method: as §1, §2, §3

[4] = system: diabetic/hypercholesterolemic pig model (DM/HC); assay: TUNEL assay of trabecular bone in DM/HC pigs; type: in vivo; conditions: treated vs non-treated DM/HC pigs, n=4 per group
Method: as §1, §2
Daily dosing began on Day 29, at which time each test animal was given a daily dose of 10 mg/kg SB-480848 (given as bolus equivalent in dog food). […]
TUNEL Assay. Apoptosis was measured by the TUNEL assay. […]

[5] = system: MLO-A5 osteoblastic cells; assay: Alizarin Red staining (mineralization) of MLO-A5 cells; type: cell-based, mice; conditions: 5 μM LysoPC, 7 days, vs non-treated control cells
Method: (§4) Alkaline Phosphatase and Alizarin Red Staining. Alizarin Red and Alkaline Phosphatase Staining are bone marker proteins indicating the degree of mineralization and intensity of osteblast differentiation, respectively. MLO-A5 osteoblastic cells (isolated from 14-day-old osteocalcin promoter-driven T-antigen transgenic mice, J Bone Miner Res 12:2014-2023, 1997) were cultured on Collagen1 coated plates at density 15000 cells/well in 12-well TC plates. After 24 hours, the cells were treated w/10 mM β-GP and LysoPC at 5 μM concentration for 3 and 7 days. Treatment was repeated every other day. At each time point alizarin red and alkaline phosphatase staining was performed. Alkaline phosphatase Detection Kit (Chemicon, Intl., Temecula, Calif., SCR004) was used for detection and performed as per manufactures instructions. To visualize mineralization the cells were washed once with a 2% Alizarin Red S solution for 5-10 min. at room temperature followed by one wash with water, two washes with PBS and fixation with paraformaldehyde. The results were then imaged with a digital cooled CCD camera.

MLO-A5 cells = assay: CyQUANT cell proliferation assay in MLO-A5 cells; type: cell-based, mice; conditions: 5 μM LysoPC, 18 hours, vs non-treated cells
Method: Cell Proliferation. MLO-A5 cells were plated in 48-well TC dishes at a density of 5,000 cells/well and allowed to attach (5-6 hrs.). The cells were treated with 5 uM of Lyso PC for 18 hrs followed by analysis with the CyQUANT Cell Proliferation Assay Kit (Molecular Probes) following manufacturers instructions to measure MLO-A5 proliferation.

[6] = system: MLO-A5 osteoblastic cells; assay: Alkaline phosphatase staining (osteoblast differentiation) of MLO-A5 cells; type: cell-based, mice; conditions: vs control
Method: as §4

[7] = DM/HC pigs, 10 mg/kg/day SB-480848, sacrificed Day 196
[8] = DM/HC pigs, 10 mg/kg/day SB-480848, sacrificed Day 196, listed as Lp-PLA2 inhibitor

Row | Compound | osteoporotic changes (BV/TV, BS/BV) ([1]; DM/HC pigs treated with inhibitor, in words) | BS/BV (bone surface over bone volume) [1, 7] | BV/TV (bone volume over total volume) [1, 7] | Conn-Dens (connectivity density) [1, 7] | Tb.N (trabecular number) [1, 7] | Tb.Sp (trabecular separation) [1, 7] | SMI (structural model index) [1, 7] | Tb.Th (trabecular thickness) [1, 7] | SMI (structural model index) [1, 8] | Tb.Th (trabecular thickness) [1, 8] | changes in Tb.Sp, TbN and ConnD ([1]; control vs DM/HC vs treated DM/HC animals, in words) | weight ([2]; treated DM/HC pigs at end of study, baseline 26.9 kg, control animals 50.9 kg) [kg] | responsiveness and activity of the animals ([2]; treated vs control DM/HC pigs, observation) | trabecular bone marrow morphology / homeostasis ([3]; H&E-AB staining, trabecular bone areas) | bone marrow remote from trabecular bone [3] | death of osteocytes and osteoblasts (TUNEL positive cells) [4] | mineralization (Alizarin Red staining) [5] | proliferation (MLO-A5 cells) | alkaline phosphatase staining ([6]; 5 μM LysoPC, 7 day treatment) | alkaline phosphatase staining ([6]; at least 5 μM LysoPC (5 and 20 μM), 7 days)
1 | CCN(CC)CCN(Cc1ccc(-c2ccc(C(F)(F)F)cc2)cc1)C(=O)Cn1c(SCc2ccc(F)cc2)nc(=O)c2c1CCC2 [SB480848, 1-(N-(2-(diethylamino)ethyl)-N-(4-(4-trifluoromethylphenyl)benzyl)-aminocarbonylmethyl)-2-(4-fluorobenzyl)thio-5,6-trimethylenepyrimidin-4-one] | no osteoporotic changes | 24.40 ± 0.51 | 0.25 ± 0.01 | 35.69 ± 1.22 | 2.78 ± 0.06 | 0.33 ± 0.007 | 0.65 ± 0.10 | 0.10 ± 0.002 | degenerative changes were minimized | reduced Tb.Th thickness was prevented | no significant changes | 62.5 | more responsive to external stimuli | preserved bone marrow homeostasis | prevented DM/HC-induced bone marrow abnormalities | reduced death of osteocytes and osteoblasts | – | – | – | –
2 | lyso-phosphatidylcholine [LysoPC] | – | – | – | – | – | – | – | – | – | – | – | – | – | – | – | – | decreased mineralization | reduced proliferation | decreased alkaline phosphatase staining | reduced alkaline phosphatase staining
